Measurements from patent US20230322785A1, “ADENOSINE A2A AND A2B RECEPTOR DUAL ANTAGONISTS FOR IMMUNO-ONCOLOGY” (Merck Sharp & Dohme LLC, priority 2020, published 2023).

The compounds below were run against T1, human A2A adenosine receptor (Homo sapiens, UniProt P29274) (assay: A2A binding affinity, Method (A): radioligand filtration binding with [3H]SCH58261). Conditions: membranes of HEK293 or CHO cells expressing the human receptor.
T1 construct: expressed in transfected cells; host or cells: HEK293 or CHO cells
T1 sequence (P29274 whole entry): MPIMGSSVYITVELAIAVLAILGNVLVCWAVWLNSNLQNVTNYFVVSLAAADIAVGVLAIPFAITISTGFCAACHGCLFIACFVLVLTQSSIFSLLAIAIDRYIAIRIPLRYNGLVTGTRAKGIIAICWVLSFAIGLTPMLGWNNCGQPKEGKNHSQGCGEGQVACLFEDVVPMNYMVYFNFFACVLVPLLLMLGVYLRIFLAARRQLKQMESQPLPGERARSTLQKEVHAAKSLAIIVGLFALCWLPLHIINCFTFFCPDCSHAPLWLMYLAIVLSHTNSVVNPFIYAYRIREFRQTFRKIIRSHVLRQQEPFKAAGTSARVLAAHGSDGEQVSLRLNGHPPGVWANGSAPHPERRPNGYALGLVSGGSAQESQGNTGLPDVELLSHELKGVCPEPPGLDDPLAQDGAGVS
Text: Method (A) describes the procedure used to measure A2A binding affinity using radioligand binding. Method (B) describes the procedure used to measure A2A binding affinity using SPA technology. The method used to measure A2B binding affinity is also described below. The method used to determine the A2A IC50 value reported for each compound in the table is indicated next to the reported value. The A2B IC50 value measured using the A2B binding affinity assay is shown in the table next to the compound under the corresponding A2A value.
The A2A receptor affinity binding assay measured the amount of binding of a tritiated ligand with high affinity for the A2A adenosine receptor to membranes made from HEK293 or CHO cells recombinantly expressing the human A2A adenosine receptor, in the presence of varying concentrations of a compound of the invention. The data were generated using either filtration binding or a homogenous scintillation proximity assay (SPA).
Method (A): Measurement of A2A Binding Affinity Using Radioligand Binding
148 µL (5 µg/mL) membranes (Perkin Elmer, Cat. No. RBHA2aM400UA) and 2 µL compounds of the invention to be tested (test compound) were transferred to individual wells of a 96-well polypropylene assay plate and incubated for 15 to 30 min at room temperature. [^3H] SCH58261 ((7-(2-phenylethyl)-5-amino-2-(2-furyl)-pyrazolo-[4,3-e]-1,2,4-triazolo[1,5-c]pyrimidine)) was diluted in assay buffer (50 mM Tris pH 7.4, 10 mM MgCl2, 0.005% Tween20) to a concentration of 4 nM and 50 µL transferred to each well of the assay plate. To define total and non-specific binding, wells containing 1% DMSO and 1 µM ZM241385 (Tocris Bioscience, Cat. No. 1036) respectively, were also included. The assay plate was incubated at room temperature for 60 min with agitation. Using a FilterMate Harvester® (Perkin Elmer), the contents of the assay plate were filtered through a UniFilter-96® PEI coated plate (Perkin Elmer Cat. No. 6005274 or 6005277). Filtering was achieved by aspirating the contents of the assay plate for 5 sec, then washing and aspirating the contents three times with ice-cooled wash buffer (50 mM Tris-HCl pH 7.4, 150 mM NaCl) and allowing the vacuum manifold to dry the plate for 30 sec. The filter plate was incubated for at least 1 h at 55° C. and allowed to dry. The bottom of the filter plate was sealed with backing tape. 40 µL Ultima Gold™ (Perkin Elmer, Cat. No. 6013329) was added to each well of the filter plate and the top of the plate was sealed with TopSeal-A PLUS® clear plate seal (Perkin Elmer, Cat. No. 6050185). The plate was incubated for at least 20 min, and then the amount of radioactivity remaining in each well was determined using a TopCount® (Perkin Elmer) scintillation counter. After normalization to total and non-specific binding, the percent effect at each compound concentration was calculated. The plot of percent effect versus the log of compound concentration was analyzed electronically using a 4-parameter logistic fit based on the Levenberg-Marquardt algorithm to generate IC50 values.
In the case of `COc1cccc2c1nc(N)n1nc(CNC(=O)c3ccc(C(O)(C(F)(F)F)C(F)(F)F)cc3)nc21` [Example 2.6, N-((5-amino-7-methoxy-[1,2,4]triazolo[1,5-c]quinazolin-2-yl)methyl)-4-(1,1,1,3,3,3-hexafluoro-2-hydroxypropan-2-yl)benzamide], the IC50 is reported as 0.3 nM.
`COc1cccc2c1nc(N)n1nc(CNC(=O)c3c(C)cc(C(C)(C)O)cc3C)nc21` [Entry 1.3] gave an IC50 of 10.2 nM.
Compound `COc1cccc2c1nc(N)n1nc(CCNC34CC(C(C)(C)O)(C3)C4)nc21` [Example 22.2, 2-(3-((2-(5-amino-7-methoxy-[1,2,4]triazolo[1,5-c]quinazolin-2-yl)ethyl)amino)bicyclo[1.1.1]pentan-1-yl)propan-2-ol] has an IC50 of 12.3 nM.
`COc1cc(F)cc2c1nc(N)n1nc(CCN3Cc4cnc(C(C)C)n4CC3=O)nc21` [Example 26.3, 7-(2-(5-amino-9-fluoro-7-methoxy-[1,2,4]triazolo[1,5-c]quinazolin-2-yl)ethyl)-3-isopropyl-7,8-dihydroimidazo[1,5-a]pyrazin-6(5H)-one] was tested, and the IC50 was 6.4 nM.
Compound `COc1cccc2c1nc(N)n1nc(CNC(=O)c3ccc(C(C)(O)C(F)(F)F)cc3)nc21` (single isomer, unassigned) [Example 2.7A, (S or R)-N-((5-amino-7-methoxy-[1,2,4]triazolo[1,5-c]quinazolin-2-yl)methyl)-4-(1,1,1-trifluoro-2-hydroxypropan-2-yl)benzamide] has an IC50 of 0.3 nM.
In the case of `COc1cccc2c1nc(N)n1nc(CNC(=O)c3ccc(C(C)(O)C(F)(F)F)cc3)nc21` (single isomer, unassigned) [Example 2.7B, (R or S)-N-((5-amino-7-methoxy-[1,2,4]triazolo[1,5-c]quinazolin-2-yl)methyl)-4-(1,1,1-trifluoro-2-hydroxypropan-2-yl)benzamide], the IC50 is reported as 0.5 nM.
Work on `COc1cccc2c1nc(N)n1nc(CNC(=O)c3ccc(C(C)(C)O)cn3)nc21` [Example 4.2, N-((5-amino-7-methoxy-[1,2,4]triazolo[1,5-c]quinazolin-2-yl)methyl)-5-(2-hydroxypropan-2-yl)picolinamide] yielded an IC50 of 1.4 nM.
Compound `COc1cccc2c1nc(N)n1nc(CNC3CCc4c(nnn4C4CC(F)(F)C4)C3)nc21` (single isomer, unassigned) [Example 11.2B, (R or S)-2-(((1-(3,3-difluorocyclobutyl)-4,5,6,7-tetrahydro-1H-benzo[d][1,2,3]triazol-5-yl)amino)methyl)-7-methoxy-[1,2,4]triazolo[1,5-c]quinazolin-5-amine] has an IC50 of 3.4 nM.
`COc1cccc2c1nc(N)n1nc(CNC3CCc4c(nnn4C4CC(F)(F)C4)C3)nc21` (single isomer, unassigned) [Example 11.2A, (S or R)-2-(((1-(3,3-difluorocyclobutyl)-4,5,6,7-tetrahydro-1H-benzo[d][1,2,3]triazol-5-yl)amino)methyl)-7-methoxy-[1,2,4]triazolo[1,5-c]quinazolin-5-amine] showed an IC50 of 0.6 nM.
`COc1cc(F)cc2c1nc(N)n1nc(CNC(=O)c3ccc(C(C)(C)O)cc3Cl)nc21` [Entry 3.5] gave an IC50 of 2.5 nM.
`COc1cccc2c1nc(N)n1nc(CNC(=O)c3ncc(C(C)(C)O)cc3Br)nc21` [Example 4.11, N-((5-amino-7-methoxy-[1,2,4]triazolo[1,5-c]quinazolin-2-yl)methyl)-3-bromo-5-(2-hydroxypropan-2-yl)picolinamide] gave an IC50 of 1.5 nM.
For `COc1cccc2c1nc(N)n1nc(CN3CC(n4cccn4)C3)nc21` [Example 11.12, 2-((3-(1H-pyrazol-1-yl)azetidin-1-yl)methyl)-7-methoxy-[1,2,4]triazolo[1,5-c]quinazolin-5-amine], the IC50 was 3.7 nM.
For `COc1cccc2c1nc(N)n1nc(CN(C)Cc3ccc(S(N)(=O)=O)cc3)nc21` [Example 9.2, 4-((((5-amino-7-methoxy-[1,2,4]triazolo[1,5-c]quinazolin-2-yl)methyl)(methyl)amino)methyl)benzenesulfonamide], the IC50 was 2.5 nM.
Work on `COc1cccc2c1nc(N)n1nc(CNCc3ccc(S(N)(=O)=O)cc3)nc21` [Example 11.10, 4-((((5-amino-7-methoxy-[1,2,4]triazolo[1,5-c]quinazolin-2-yl)methyl)amino)methyl)benzenesulfonamide] yielded an IC50 of 1.4 nM.
For `COc1cccc2c1nc(N)n1nc(CCNc3cnn(C)c3)nc21` [Example 23.2, 7-methoxy-2-(2-((1-methyl-1H-pyrazol-4-yl)amino)ethyl)-[1,2,4]triazolo[1,5-c]quinazolin-5-amine], the IC50 was 4.2 nM.
Work on `COc1cccc2c1nc(N)n1nc(CCN(C)c3cnn(C)c3)nc21` [Example 24.4, 7-methoxy-2-(2-(methyl(1-methyl-1H-pyrazol-4-yl)amino)ethyl)-[1,2,4]triazolo[1,5-c]quinazolin-5-amine] yielded an IC50 of 0.9 nM.

The compounds below were run against T1, human A2A adenosine receptor (assay: A2A binding affinity, Method (B): scintillation proximity assay (SPA) with [3H]SCH58261). Conditions: membranes of HEK293 or CHO cells expressing the human receptor.
In short: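 Membranes from HEK293 or CHO cells expressing the receptor were pretreated with 20 µg/mL adenosine deaminase for 15 min, then bound to WGA SPA beads. [3H]SCH58261 was added at 1.25 nM in Ca/Mg-free DPBS with 10 mM MgCl2, incubated 1 h at RT, then settled 1 h. Non-specific binding used 1 µM CGS 15943. IC50 came from 4-parameter logistic fits.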
For `COc1cccc2c1nc(N)n1nc(CN(Cc3ccc(OC(F)(F)F)cc3)CC3CCC3)nc21` [Example 15.10, 2-(((cyclobutylmethyl)(4-(trifluoromethoxy)benzyl)amino)methyl)-7-methoxy-[1,2,4]triazolo[1,5-c]quinazolin-5-amine], the IC50 was 8.5 nM.
Compound `COc1cccc2c1nc(N)n1nc(CN(Cc3ccc(C(F)(F)F)cc3)S(=O)(=O)C(F)(F)F)nc21` [Example 19.3, N-((5-amino-7-methoxy-[1,2,4]triazolo[1,5-c]quinazolin-2-yl)methyl)-1,1,1-trifluoro-N-(4-(trifluoromethyl)benzyl)methanesulfonamide] has an IC50 of 115 nM.
`COc1cccc2c1nc(N)n1nc(CCN[C@H](C)c3ccc(C(F)(F)F)cc3)nc21` [Example 22.4, (R)-7-methoxy-2-(2-((1-(4-(trifluoromethyl)phenyl)ethyl)amino)ethyl)-[1,2,4]triazolo[1,5-c]quinazolin-5-amine] showed an IC50 of 15.9 nM.
`COc1cccc2c1nc(N)n1nc(CN(Cc3cccnc3)CC3CC3)nc21` [Example 16.2, 2-(((cyclopropylmethyl)(pyridin-3-ylmethyl)amino)methyl)-7-methoxy-[1,2,4]triazolo[1,5-c]quinazolin-5-amine] was tested, and the IC50 was 5.3 nM.
In the case of `COc1cccc2c1nc(N)n1nc(CNC(=O)CCc3ccc(C(F)(F)F)cc3)nc21` [Example 2.3], the IC50 is reported as 4.5 nM.
With `COc1cccc2c1nc(N)n1nc(CN(C)c3cccnc3Br)nc21` [Example 10.3, 2-(((2-bromopyridin-3-yl)(methyl)amino)methyl)-7-methoxy-[1,2,4]triazolo[1,5-c]quinazolin-5-amine] the IC50 was 41.6 nM.
With `COc1cccc2c1nc(N)n1nc(CNC(=O)CCc3cccc(C(F)(F)F)c3)nc21` [Example 2.5] the IC50 was 25.8 nM.
`COc1cccc2c1nc(N)n1nc(CCN(C)Cc3ccc(C(F)(F)F)cc3)nc21` [Example 22.5, 7-methoxy-2-(2-(methyl(4-(trifluoromethyl)benzyl)amino)ethyl)-[1,2,4]triazolo[1,5-c]quinazolin-5-amine] showed an IC50 of 4.1 nM.
With `COc1cccc2c1nc(N)n1nc(CN(Cc3ccc(OC(F)(F)F)cc3)CC3CCCCC3)nc21` [Example 15.11, 2-(((cyclohexylmethyl)(4-(trifluoromethoxy)benzyl)amino)methyl)-7-methoxy-[1,2,4]triazolo[1,5-c]quinazolin-5-amine] the IC50 was 123 nM.
In the case of `COc1cccc2c1nc(N)n1nc(CN(Cc3ccc(NC(=O)C(C)(C)C)nc3)CC3CC3)nc21` [Example 16.9], the IC50 is reported as 5.2 nM.
`COc1cccc2c1nc(N)n1nc(CCCNCc3ccc(S(F)(F)(F)(F)F)cc3)nc21` [Example 10.7, 7-methoxy-2-(3-((4-(pentafluoro-λ^6-sulfaneyl)benzyl)amino)propyl)-[1,2,4]triazolo[1,5-c]quinazolin-5-amine] was tested, and the IC50 was 45.2 nM.
With `Nc1nc2c(F)cc(F)cc2c2nc(CCNCc3ccc(C(F)(F)F)cc3)nn12` [Example 10.2, 7,9-difluoro-2-(2-((4-(trifluoromethyl)benzyl)amino)ethyl)-[1,2,4]triazolo[1,5-c]quinazolin-5-amine] the IC50 was 110 nM.
